Measured values published in US20250280861A1, “SWEETENER COMPOSITIONS” (Firmenich Incorporated, priority 2022, published 2025).

The molecules below were run against T1, hT1R2/T1R3 taste receptor (Homo sapiens, UniProt Q7RTX0+Q8TE23) (assay: agonist activity against the hT1R2/T1R3 taste receptor (sweet receptor based assay)). Conditions: not given.
T1 sequence (Q8TE23 20-839): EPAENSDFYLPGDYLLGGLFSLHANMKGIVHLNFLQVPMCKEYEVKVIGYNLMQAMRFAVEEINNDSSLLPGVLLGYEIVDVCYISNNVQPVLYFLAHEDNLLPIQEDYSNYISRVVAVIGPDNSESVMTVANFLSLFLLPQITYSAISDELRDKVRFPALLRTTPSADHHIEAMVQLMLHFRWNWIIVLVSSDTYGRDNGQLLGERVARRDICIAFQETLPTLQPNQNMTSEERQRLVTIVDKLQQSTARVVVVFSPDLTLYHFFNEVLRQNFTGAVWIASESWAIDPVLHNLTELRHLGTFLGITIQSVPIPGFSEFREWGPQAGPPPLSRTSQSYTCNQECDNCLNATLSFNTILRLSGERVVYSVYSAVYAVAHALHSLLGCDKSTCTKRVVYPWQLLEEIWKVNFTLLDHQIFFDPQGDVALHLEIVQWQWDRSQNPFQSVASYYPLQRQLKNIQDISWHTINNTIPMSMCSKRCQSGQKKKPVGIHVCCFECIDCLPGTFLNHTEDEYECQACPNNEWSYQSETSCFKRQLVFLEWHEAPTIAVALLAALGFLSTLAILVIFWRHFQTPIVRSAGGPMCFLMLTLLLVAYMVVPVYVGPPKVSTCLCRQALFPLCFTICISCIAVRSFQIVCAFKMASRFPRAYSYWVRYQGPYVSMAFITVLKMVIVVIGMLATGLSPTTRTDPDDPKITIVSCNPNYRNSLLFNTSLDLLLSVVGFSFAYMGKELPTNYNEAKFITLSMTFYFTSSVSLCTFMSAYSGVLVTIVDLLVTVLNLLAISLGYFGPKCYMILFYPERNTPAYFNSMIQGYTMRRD
T1 sequence (Q7RTX0 21-852): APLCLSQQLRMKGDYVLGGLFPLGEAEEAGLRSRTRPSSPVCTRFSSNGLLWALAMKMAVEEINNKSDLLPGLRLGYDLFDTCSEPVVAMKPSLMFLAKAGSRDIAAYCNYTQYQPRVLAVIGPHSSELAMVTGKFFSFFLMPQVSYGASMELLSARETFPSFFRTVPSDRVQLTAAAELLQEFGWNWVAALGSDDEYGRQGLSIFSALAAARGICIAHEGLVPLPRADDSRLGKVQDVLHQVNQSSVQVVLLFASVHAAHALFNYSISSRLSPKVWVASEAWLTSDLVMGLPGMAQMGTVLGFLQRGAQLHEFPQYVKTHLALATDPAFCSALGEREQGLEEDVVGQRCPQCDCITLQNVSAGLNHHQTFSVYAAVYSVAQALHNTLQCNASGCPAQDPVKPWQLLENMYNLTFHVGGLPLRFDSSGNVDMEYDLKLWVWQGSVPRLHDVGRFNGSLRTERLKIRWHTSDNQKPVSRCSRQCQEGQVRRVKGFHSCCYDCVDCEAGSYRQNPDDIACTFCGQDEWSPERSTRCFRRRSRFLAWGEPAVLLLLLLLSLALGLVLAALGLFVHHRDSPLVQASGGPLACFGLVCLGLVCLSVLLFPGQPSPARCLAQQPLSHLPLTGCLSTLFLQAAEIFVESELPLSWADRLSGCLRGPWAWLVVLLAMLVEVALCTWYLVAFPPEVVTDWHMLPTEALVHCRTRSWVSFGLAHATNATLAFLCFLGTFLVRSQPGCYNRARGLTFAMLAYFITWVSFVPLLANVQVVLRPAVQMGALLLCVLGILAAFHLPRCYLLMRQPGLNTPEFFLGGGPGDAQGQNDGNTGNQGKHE
Format: cell-based
Description: Compounds described in this application show moderate to potent agonist effect on the sweet receptor based assay. Potencies (EC50 values, e.g. see Tables 1-3) for agonist activity were measured against the hT1R2/T1R3 taste receptor. FIG. 1 exemplifies the data generated during the screening to determine EC50 values.

Structure (SMILES) | EC50
COCC1(c2ccccc2)CCN(C(C)(C)C(=O)NCC(C)C)CC1 [Compound 120] | > 10 µM

Same assay, conditions: agonist activity, hT1R2/T1R3; read-out: Sweet EC50

Structure (SMILES) | EC50
COCCNC(=O)C(C)(C)N1CCN(c2cccc(C)c2C)CC1 [Compound 22] | > 10 µM
CC(C)CNC(=O)C(C)(C)N1CCC(c2ccccc2F)CC1 [Compound 91] | 0.4 µM
CC(C)CNC(=O)C(C)(C)N1CC=C(c2cccc(F)c2F)CC1 [Compound 59] | 1.7 µM
CC(C)CNC(=O)C(C)(C)N1CC=C(c2cccc3c2OCO3)CC1 [Compound 72] | > 10 µM
COC(=O)c1ccccc1N1CCN(C(C)(C)C(=O)NCC(C)C)CC1 [Compound 49] | > 10 µM
CC(C)CNC(=O)C(C)(C)N1CCN(c2cccc(F)c2F)CC1 [Compound 3, 2-(4-(2,3-difluorophenyl)piperazin-1-yl)-N-isobutyl-2-methylpropanamide] | 1.6 µM
CC(C)CNC(=O)C(C)(C)N1CC=C(c2cccc(CO)c2F)CC1 [Compound 66] | > 10 µM
Cc1cccc(C2CCN(C(C)(C)C(=O)NCC(C)C)CC2)c1F [Compound 98] | 0.9 µM
Cc1cccc(N2CCN(C(C)(C)C(=O)NCCc3ccccc3)CC2)c1C [Compound 27] | > 10 µM
COCc1c(F)cccc1N1CCN(C(C)(C)C(=O)NCC(C)C)CC1 [Compound 5, 2-(4-(3-fluoro-2-(methoxymethyl)phenyl)piperazin-1-yl)-N-isobutyl-2-methylpropanamide] | 2.1 µM
COCC(C(=O)NCC(C)C)N1CCC(c2ccccc2)CC1 (centres unmarked) [Compound 113] | 4.4 µM
COCc1c(F)cccc1C1=CCN(C(C)(C)C(=O)NCC(C)C)CC1 [Compound 61] | 6.5 µM
Cc1cccc(N2CCN(C(C)(C)C(=O)NCC3CCCC3)CC2)c1C [Compound 15] | 6.9 µM
COCc1ccccc1C1CCN(C(C)(C)C(=O)NCC(C)C)CC1 [Compound 110] | > 10 µM
CCC(C)(C)NC(=O)C(C)(C)N1CCN(c2cccc(C)c2C)CC1 [Compound 19] | > 10 µM
CCNC(=O)C(C)(C)N1CCN(c2cccc(C)c2C)CC1 [Compound 8] | > 10 µM
CC(C)CNC(=O)C(C)(C)N1CCN(c2ccccc2C(F)(F)F)CC1 [Compound 50] | > 10 µM
COCc1cccc(C2=CCN(C(COC)C(=O)NCC(C)C)CC2)c1F (centres unmarked) [Compound 55, 2-(4-(2-fluoro-3-(methoxymethyl)phenyl)-3,6-dihydropyridin-1(2H)-yl)-N-isobutyl-3-methoxypropanamide] | 1.4 µM
CC(C)CNC(=O)C(C)(C)N1CCC(c2ccccc2N(C)C)CC1 [Compound 101] | > 10 µM
CCCNC(=O)C(C)(C)N1CCC(c2ccccc2)CC1 [Compound 85] | 5.5 µM

Structure (SMILES) | EC50
CC(C)CNC(=O)C(C)(C)N1CCC(O)(c2ccccc2)CC1 [Compound 123] | > 10 µM
COCc1cccc(N2CCN(C(C)(C)C(=O)NCC(C)C)CC2)c1 [Compound 45] | > 10 µM
CC(C)(C(=O)NC1CCCC1)N1CCC(c2ccccc2)CC1 [Compound 84] | 2.5 µM
CC(C)CNC(=O)C(C)(C)N1CCN(c2ccccc2CO)CC1 [Compound 6] | > 10 µM
Cc1cccc(N2CCN(CC(=O)NCC(C)C)CC2)c1C [Compound 12] | 9.7 µM
COCc1cccc(C2CCN(C(C)(C)C(=O)NCC(C)C)CC2)c1 [Compound 111] | 3.1 µM
COc1ccccc1N1CCN(C(C)(C)C(=O)NCC(C)C)CC1 [Compound 52] | > 10 µM
COC(=O)c1c(F)cccc1N1CCN(C(C)(C)C(=O)NCC(C)C)CC1 [Compound 7, Methyl 2-fluoro-6-(4-(1-(isobutylamino)-2-methyl-1-oxopropan-2-yl)piperazin-1-yl)benzoate] | 11.5 µM
CC(C)CNC(=O)C(C)(C)N1CCc2ccccc2C1 [Compound 116] | 3.8 µM
CC(C)[C@@H](C)NC(=O)C(C)(C)N1CCC(c2ccccc2)CC1 [Compound 86] | 4.4 µM
Cc1cccc(N2CCN(C(C)(C)C(=O)NCC(C)(C)O)CC2)c1C [Compound 25] | > 10 µM
Cc1cccc(C2=CCN(C(C)(C)C(=O)NCC(C)C)CC2)c1F [Compound 65] | 2.9 µM
CC(C)CNC(=O)C1(N2CCC(c3ccccc3)CC2)COC1 [Compound 112] | 4.8 µM
CC(C)CNC(=O)C(C)N1CCC(c2ccccc2)CC1 (centres unmarked) [Compound 90] | 4.7 µM
CC(C)CNC(=O)C(C)(C)N1CC=C(c2ccccc2N(C)C)CC1 [Compound 67] | > 10 µM
CC(C)(C(=O)NC1CCC1)N1CCC(c2ccccc2)CC1 [Compound 83] | > 10 µM
CC(C)CNC(=O)C(C)(C)N1CCN(c2ccccc2C#N)CC1 [Compound 48] | > 10 µM
COCc1ccc(C2=CCN(C(C)(C)C(=O)NCC(C)C)CC2)c(F)c1 [Compound 69] | > 10 µM
COCc1cccc(C2CCN(C(C)(C)C(=O)NCC(C)C)CC2)c1F [Compound 95] | 0.5 µM
CC(C)CNC(=O)C(C)(C)N1CCN(c2ccccc2)CC1 [Compound 34] | > 10 µM

Structure (SMILES) | EC50
CC(C)CNC(=O)C(C)(C)N1CCC(C)(c2ccccc2)CC1 [Compound 118] | 3.7 µM
Cc1cccnc1N1CCN(C(C)(C)C(=O)NCC(C)C)CC1 [Compound 41] | > 10 µM
CC(C)CNC(=O)C(C)(C)N1CCC2(CC1)OCc1ccccc12 [Compound 121] | 5.6 µM
CC(C)(C)CNC(=O)C(C)(C)N1CCC(c2ccccc2)CC1 [Compound 88] | 4.2 µM
COCc1cccc(N2CCN(C(C)(C)C(=O)NCC(C)C)CC2)c1F [Compound 4, 2-(4-(2-fluoro-3-(methoxymethyl)phenyl)piperazin-1-yl)-N-isobutyl-2-methylpropanamide] | 2.1 µM
Cc1cccc(C2=CCN(C(C)(C)C(=O)NCC(C)C)CC2)n1 [Compound 77] | > 10 µM
CC(C)CNC(=O)C(C)(C)N1CC=C(c2cncc(C#N)c2)CC1 [Compound 70] | > 10 µM
Cc1cccc(N2CCN(C(C)(C)C(=O)NCCN(C)C)CC2)c1C [Compound 23] | > 10 µM
Cc1cccc(N2CCN(C(C)(C)C(=O)NCCC(C)C)CC2)c1C [Compound 26] | 8 µM
Cc1cccc(C2CCN(C(C)(C)C(=O)NCC(C)C)CC2)n1 [Compound 109] | 5.1 µM
COc1cccc(C2=CCN(C(C)(C)C(=O)NCC(C)C)CC2)c1F [Compound 68] | > 10 µM
CC(C)CNC(=O)C(C)(C)N1CCC(c2cccc(F)c2)CC1 [Compound 96] | 0.6 µM
Cc1ccccc1N1CCN(C(C)(C)C(=O)NCC(C)C)CC1 [Compound 46] | 4.3 µM
Cc1ccccc1C1=CCN(C(C)(C)C(=O)NCC(C)C)CC1 [Compound 58] | 5.4 µM
CC(C)CNC(=O)C(C)(C)N1CCC(c2cccc(CN(C)C)c2)CC1 [Compound 103] | > 10 µM
COCC(C(=O)NCC(C)C)N1CCC(c2cccc(F)c2F)CC1 (centres unmarked) [Compound 114] | 0.4 µM
COCc1ccc(C2CCN(C(C)(C)C(=O)NCC(C)C)CC2)c(F)c1 [Compound 102] | > 10 µM
CC(C)CNC(=O)C(C)(C)N1CCC(c2cccc(CO)c2F)CC1 [Compound 99] | 4.7 µM
